Results taken from the supplement of paper PMC6045584.

What was measured:
Assay in all cases: area under dose-response curve of surviving fraction (unscaled, Aref=0) (surviving fraction x log10(nM)); higher = more resistant
Settings in all cases: exposure time: 5 days; dose range 0.5-1000 nM
AFIMOXIFENE = compound: CC/C(=C(\c1ccc(O)cc1)c1ccc(OCCN(C)C)cc1)c1ccccc1 [AFIMOXIFENE]
How it was run: (§1)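 Tumour cell lines in 384-well plates were exposed for five days to eight inhibitor concentrations from 0.5 to 1000 nM. Viability was read by CellTiter-Glo luminescence, normalised to DMSO-only wells, in three screens per line. Dose-response survival curves were fitted to surviving fractions by 3-parameter logistic regression in the drc R package. Area under the curve is the unscaled activity area (Aref = 0) over log10 dose.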

NILOTINIB = compound: Cc1cn(-c2cc(NC(=O)c3ccc(C)c(Nc4nccc(-c5cccnc5)n4)c3)cc(C(F)(F)F)c2)cn1 [NILOTINIB]
How it was run: as §1

BMN-673 = compound: Cn1ncnc1[C@H]1c2n[nH]c(=O)c3cc(F)cc(c23)N[C@@H]1c1ccc(F)cc1 [BMN-673]
How it was run: as §1

IMATINIB = compound: Cc1ccc(NC(=O)c2ccc(CN3CCN(C)CC3)cc2)cc1Nc1nccc(-c2cccnc2)n1 [IMATINIB]
How it was run: as §1

MK-1775 = compound: C=CCn1c(=O)c2cnc(Nc3ccc(N4CCN(C)CC4)cc3)nc2n1-c1cccc(C(C)(C)O)n1 [MK-1775]
How it was run: as §1

[1] = compound: COc1ccc(-c2cc3c(C)nc(N)nc3n([C@H]3CC[C@H](OCCO)CC3)c2=O)cn1
How it was run: as §1

[2] = compound: CCc1cc(Nc2nccc(-c3c(-c4ccc(OC)c(C(=O)Nc5c(F)cccc5F)c4)nc4ccccn34)n2)c(OC)cc1N1CCC(N2CCN(S(C)(=O)=O)CC2)CC1
How it was run: as §1

VORINOSTAT = compound: O=C(CCCCCCC(=O)Nc1ccccc1)NO [VORINOSTAT]
How it was run: as §1

BLEOMYCIN = compound: Cc1c(N)nc([C@H](CC(N)=O)NC[C@H](N)C(N)=O)nc1C(=O)N[C@H](C(=O)N[C@H](C)[C@@H](O)[C@H](C)C(=O)N[C@H](C(=O)NCCc1nc(-c2nc(C(=O)NCCC[S+](C)C)cs2)cs1)[C@@H](C)O)[C@@H](OC1OC(CO)C(O)C(O)C1OC1OC(CO)C(O)C(OC(N)=O)C1O)c1cnc[nH]1 [BLEOMYCIN]
How it was run: as §1

BEZ-235 = compound: Cn1c(=O)n(-c2ccc(C(C)(C)C#N)cc2)c2c3cc(-c4cnc5ccccc5c4)ccc3ncc21 [BEZ-235]
How it was run: as §1

CABOZANTINIB = compound: COc1cc2nccc(Oc3ccc(NC(=O)C4(C(=O)Nc5ccc(F)cc5)CC4)cc3)c2cc1OC [CABOZANTINIB]
How it was run: as §1

[3] = compound: C[C@H](CN(C)C)Oc1nc(Nc2cc3cccc(Cl)c3cn2)cnc1C#N
How it was run: as §1

HS57T LUNG
area under dose-response curve (AFIMOXIFENE): 3.68
area under dose-response curve (NILOTINIB): 3.38
area under dose-response curve (BMN-673): 2.92
area under dose-response curve (IMATINIB): 3.57
area under dose-response curve (MK-1775): 2.19
area under dose-response curve [1]: 2.21
area under dose-response curve [2]: 3.36
area under dose-response curve (VORINOSTAT): 3.16
area under dose-response curve (BLEOMYCIN): 2.57
area under dose-response curve (BEZ-235): 1.94
area under dose-response curve (CABOZANTINIB): 3.09
area under dose-response curve [3]: 2.65
